One test concerns the target TSLP (Homo sapiens, UniProt Q969D9). Description: Human peripheral blood mononuclear cell assay (TSLP-induced CCL17/TARC). It counts as cell-based. Details: host or cells: added to human PBMCs from healthy donors. The conditions noted are these: human PBMCs; 10 μM peptide; 50 pM TSLP; 24 hours; read-out: CCL17 % Inhibition @ 10 μM, 50 pM TSLP. Here is the method: Human peripheral blood mononuclear cells (PMBCs) were obtained from heparinized whole blood (healthy donors) by density gradient centrifugation using Lymphoprep (StemCell Technologies, Vancouver, BC) according to the manufacturers instructions. The PBMCs were washed twice with PBS containing 2 mM EDTA and 2% fetal calf serum (FCS) and reconstituted in RPMI containing 10% FCS and 2% PenStrep at a final concentration of 3 million cells/mL. This cell suspension (100 μL) was aliquoted into the wells of a 96-well flat bottom tissue culture plate. 5 μL of bicycle peptide or vehicle (0.1% DMSO in complete medium) was then added and mixed with 5 μL of TSLPvehicle (complete medium). […] The plate was incubated for 30 minutes are rt. 10 μL of this mixture was added to cells and the plate was incubated for 24 hours in a 10% CO2, humidified incubator at 37° C. The plate was centrifuged at 300×g for 5 min and the collected supernatants frozen at −20° C. for subsequent CCL17/TARC analysis.
CCL17/TARC was determined by MSD (MesoScale Discovery, Maryland, USA) according to the manufacturer's instructions.
TSLP, sequence (Q969D9 29-159): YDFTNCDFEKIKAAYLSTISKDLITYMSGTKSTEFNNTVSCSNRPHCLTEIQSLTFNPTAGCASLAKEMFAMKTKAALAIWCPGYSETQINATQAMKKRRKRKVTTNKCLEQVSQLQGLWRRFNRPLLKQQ
Take `CSCC[C@H](NC(=O)[C@H](CC(=O)O)NC(=O)CNC(=O)[C@H](CC(=O)O)NC(=O)[C@H](C)NC(=O)[C@@H]1CSCCC(=O)N2CN3CN(C2)C(=O)CCSC[C@H](NC(=O)[C@H](CC(=O)O)NC(=O)[C@H](CCC(=O)O)NC(=O)[C@H](CC(C)C)NC(=O)[C@H](Cc2c[nH]c4ccccc24)NC(=O)[C@H](CCC(N)=O)NC(=O)[C@@H](NC(=O)[C@H](C)N)CSCCC3=O)C(=O)N[C@@H](Cc2c[nH]c3ccccc23)C(=O)N[C@@H](CCCNC(=N)N)C(=O)NCC(=O)N[C@@H](Cc2ccccc2)C(=O)N1)C(=O)N[C@@H](CC(C)C)C(N)=O` [Example 42, A-(SEQ ID NO: 38)-ADGDML]: the inhibition at 10 µM was less than 20%.

Staying with this test, now noted: read-out: CCL17 % Inhibition @ 10 μM, […] TSLP.
In the case of `CC(=O)N[C@H]1CSCCC(=O)N2CN3CN(C2)C(=O)CCSC[C@H](NC(=O)[C@H](CC(=O)O)NC(=O)[C@H](CCC(=O)O)NC(=O)[C@H](CC(C)C)NC(=O)[C@H](Cc2c[nH]c4ccccc24)NC(=O)[C@H](CCC(N)=O)NC1=O)C(=O)N[C@@H](Cc1c[nH]c2ccccc12)C(=O)N[C@@H](CCCNC(=N)N)C(=O)NCC(=O)N[C@@H](Cc1cccc(Cl)c1)C(=O)N[C@H](C(N)=O)CSCCC3=O` [Example 32, Ac-(SEQ ID NO: 29)], the inhibition at 10 µM worked out at 14%.

On to `CSCC[C@H](NC(=O)[C@H](CC(=O)O)NC(=O)CNC(=O)[C@H](CC(=O)O)NC(=O)[C@H](C)NC(=O)[C@@H]1CSCCC(=O)N2CN3CN(C2)C(=O)CCSC[C@H](NC(=O)[C@H](CC(=O)O)NC(=O)[C@H](CCC(=O)O)NC(=O)[C@H](CC(C)C)NC(=O)[C@H](Cc2c[nH]c4ccccc24)NC(=O)[C@H](CCC(N)=O)NC(=O)[C@@H](NC(=O)[C@H](C)N)CSCCC3=O)C(=O)N[C@@H](Cc2c[nH]c3ccccc23)C(=O)N[C@@H](CCCNC(=N)N)C(=O)NCC(=O)N[C@@H](Cc2ccccc2)C(=O)N1)C(=O)N[C@@H](CC(C)C)C(N)=O` [Example 42, A-(SEQ ID NO: 38)-ADGDML], for which the inhibition at 10 µM turned out to be 47%.

Take `CC(=O)N[C@H]1CSCCC(=O)N2CN3CN(C2)C(=O)CCSC[C@H](NC(=O)[C@H](CC(=O)O)NC(=O)[C@H](CCC(=O)O)NC(=O)[C@H](CC(C)(C)C)NC(=O)[C@H](Cc2c[nH]c4ccccc24)NC(=O)[C@H](CCC(N)=O)NC1=O)C(=O)N[C@@H](Cc1c[nH]c2ccccc12)C(=O)N[C@@H](CCCNC(=N)N)C(=O)NCC(=O)N[C@@H](Cc1ccccc1)C(=O)N[C@H](C(N)=O)CSCCC3=O` [Example 44, Ac-(SEQ ID NO: 39)]: the inhibition at 10 µM was determined as 52%.

As to `CC(C)C[C@@H]1NC(=O)[C@H](Cc2c[nH]c3ccccc23)NC(=O)[C@H](CCC(N)=O)NC(=O)[C@@H](NC(=O)[C@H](CCC(=O)O)NC(=O)[C@H](C)NC(=O)[C@H](CO)NC(=O)[C@H](CC(=O)O)NC(=O)[C@@H](NC(=O)CN)[C@@H](C)O)CSCCC(=O)N2CN3CN(C2)C(=O)CCSC[C@H](NC(=O)[C@H](CC(=O)O)NC(=O)[C@H](CCC(=O)O)NC1=O)C(=O)N[C@@H](Cc1c[nH]c2ccccc12)C(=O)N[C@@H](CCCNC(=N)N)C(=O)NCC(=O)N[C@@H](Cc1ccccc1)C(=O)N[C@H](C(=O)N[C@@H](C)C(N)=O)CSCCC3=O` [Example 45, GTDSAE-(SEQ ID NO: 38)-A], the inhibition at 10 µM came to 0%.

With `CC(=O)N[C@H]1CSCCC(=O)N2CN3CN(C2)C(=O)CCSC[C@H](NC(=O)[C@H](CC(=O)O)NC(=O)[C@H](CCC(=O)O)NC(=O)[C@H](CC(C)C)NC(=O)[C@H](Cc2c[nH]c4ccccc24)NC(=O)[C@H](CCC(N)=O)NC1=O)C(=O)N[C@@H](Cc1c[nH]c2ccccc12)C(=O)N[C@@H](CCCNC(=N)N)C(=O)NCC(=O)N[C@@H](Cc1cccc2ccccc12)C(=O)N[C@H](C(N)=O)CSCCC3=O` [Example 47, Ac-(SEQ ID NO: 41)], the inhibition at 10 µM was -7%.

On to `CC(=O)N[C@H]1CSCCC(=O)N2CN3CN(C2)C(=O)CCSC[C@H](NC(=O)[C@H](CC(=O)O)NC(=O)[C@H](CCC(=O)O)NC(=O)[C@H](CC(C)C)NC(=O)[C@H](Cc2c[nH]c4ccccc24)NC(=O)[C@H](CCC(N)=O)NC1=O)C(=O)N[C@@H](Cc1c[nH]c2ccccc12)C(=O)N[C@@H](CCCNC(=N)N)C(=O)NCC(=O)N[C@@H](Cc1ccc2ccccc2c1)C(=O)N[C@H](C(N)=O)CSCCC3=O` [Example 50, Ac-(SEQ ID NO: 42)], for which the inhibition at 10 µM amounted to 33%.

The inhibition is the change of the read-out against control, counted positive when it falls.
